This passage reports IC50 results from US8586550B2, “Thiazole derivatives as SGLT2 inhibitors and pharmaceutical composition comprising same” (Green Cross Corporation, priority 2010, dated 2013).

For the experiment, the target named is T1, Human SGLT2 (hSGLT2) (Homo sapiens, UniProt P31639).
T1 construct: expressed in transfected cells
T1 sequence (P31639 1-672): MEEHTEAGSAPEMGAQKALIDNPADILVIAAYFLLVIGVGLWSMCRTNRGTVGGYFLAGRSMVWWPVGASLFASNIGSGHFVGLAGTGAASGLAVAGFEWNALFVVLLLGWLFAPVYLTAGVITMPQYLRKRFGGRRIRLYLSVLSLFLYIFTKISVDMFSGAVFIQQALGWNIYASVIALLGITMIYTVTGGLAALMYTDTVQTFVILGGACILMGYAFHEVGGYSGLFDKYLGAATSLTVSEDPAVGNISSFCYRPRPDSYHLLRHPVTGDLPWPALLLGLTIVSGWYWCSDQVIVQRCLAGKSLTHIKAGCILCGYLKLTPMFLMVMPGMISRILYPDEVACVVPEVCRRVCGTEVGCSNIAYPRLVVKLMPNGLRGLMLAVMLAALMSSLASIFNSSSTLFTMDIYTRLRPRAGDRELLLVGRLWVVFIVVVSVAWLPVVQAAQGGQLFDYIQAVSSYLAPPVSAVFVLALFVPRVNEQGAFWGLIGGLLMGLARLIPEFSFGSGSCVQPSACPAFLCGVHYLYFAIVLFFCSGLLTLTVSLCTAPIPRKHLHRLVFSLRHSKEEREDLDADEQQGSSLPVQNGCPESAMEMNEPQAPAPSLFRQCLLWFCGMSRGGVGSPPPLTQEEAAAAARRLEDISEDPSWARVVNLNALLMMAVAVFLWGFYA
Kind of experiment: Sodium-dependent glucose transport (14C-AMG uptake) assay in CHO cells stably expressing hSGLT2. The experiment is classed as cell-based. The note with it: CHO cells expressing hSGLT2, 14C-AMG uptake, 37° C. for 2 h; single determinations; read-out: hSGLT2 Inhibitory Activity IC50. The text has this:
Cloning and Cell Line Construction for Human SGLT2
Human SGLT2 (hSGLT2) gene was amplified by PCR from cDNA-Human Adult Normal Tissue Kidney (Invitrogen). The hSGLT2 sequence was cloned into pcDNA3.1(+) for mammalian expression and were stably transfected into chinese hamster ovary (CHO) cells. SGLT2-expressing clones were selected based on resistance to G418 antibiotic (Geneticin) and activity in the ^14C-α-methyl-D-glucopyranoside (^14C-AMG) uptake assay.
Inhibitory Effects on Human SGLT2 Activities
For sodium-dependent glucose transport assay, cells expressing hSGLT2 were seeded into a 96-well culture plate at a density of 5×10^4 cells/well in RPMI medium 1640 containing 10% fetal bovine serum. The cells were used 1 day after plating. They were incubated in pretreatment buffer (10 mM HEPES, 5 mM Tris, 140 mM choline chloride, 2 mM KCl, 1 mM CaCl2, and 1 mM MgCl2, pH 7.4) at 37° C. for 10 min. They were then incubated in uptake buffer (10 mM HEPES, 5 mM Tris, 140 mM NaCl, 2 mM KCl, 1 mM CaCl2, 1 mM MgCl2, and 1 mM ^14C-nonlabeled AMG, pH 7.4) containing ^14C-labeled (8 μM) and inhibitor or dimethylsulfoxide (DMSO) vehicle at 37° C. for 2 h. Cells were washed twice with washing buffer (pretreatment buffer containing 10 mM AMG at room temperature) and then the radioactivity was measured using a liquid scintillation counter. IC50 was determined by nonlinear regression analysis using GraphPad PRISM [Katsuno, K. et al. J. Pharmacol. Exp. Ther. 2007, 320, 323-330; Han, S. et al. Deabetes, 2008, 57, 1723-1729].
As a reminder, the IC50 is the concentration at which inhibition is half-maximal. On to `OC[C@H]1O[C@@H](c2ccc(Cl)c(C3(c4ncc(-c5ccoc5)s4)CC3)c2)[C@H](O)[C@@H](O)[C@@H]1O` [Example 28, (2S,3R,4R,5S,6R)-2-(4-Chloro-3-(1-(5-(furan-3-yl)thiazol-2-yl)cyclopropyl)phenyl)-6-(hydroxymethyl)tetrahydro-2H-pyran-3,4,5-triol], for which the IC50 was found to be 110 nM.

In the case of `OC[C@H]1O[C@@H](c2ccc(Cl)c(Cc3ncc(-c4nncs4)s3)c2)[C@H](O)[C@@H](O)[C@@H]1O` [Example 107, (2S,3R,4R,5S,6R)-2-(3-((5-(1,3,4-Thiadiazol-2-yl)thiazol-2-yl)methyl)-4-chlorophenyl)-6-(hydroxymethyl)-tetrahydro-2H-pyran-3,4,5-triol], the IC50 was found to be 14 nM.

For `OC[C@H]1O[C@@H](c2ccc(Cl)c(Cc3cnc(-c4cscn4)s3)c2)[C@H](O)[C@@H](O)[C@@H]1O` [Example 193, (2S,3R,4R,5S,6R)-2-(3-(2,4′-Bithiazol-5-ylmethyl)-4-chlorophenyl)-6-(hydroxymethyl)tetrahydro-2H-pyran-3,4,5-triol], the IC50 came to 17.7 nM.

Consider `Cc1cnc(Cc2cc([C@@H]3O[C@H](CO)[C@@H](O)[C@H](O)[C@H]3O)c(Cl)cc2Cl)s1` [Example 63, (2S,3R,4R,5S,6R)-2-(2,4-Dichloro-5-((5-methylthiazol-2-yl)methyl)phenyl)-6-(hydroxymethyl)tetrahydro-2H-pyran-3,4,5-triol], for which the IC50 worked out at 49.1 nM.

In the case of `OC[C@H]1O[C@@H](c2cc(Cc3ncc(-c4ccoc4)s3)c(Cl)cc2Cl)[C@H](O)[C@@H](O)[C@@H]1O` [Example 60, (2S,3R,4R,5S,6R)-2-(2,4-Dichloro-5-((5-(furan-3-yl)thiazol-2-yl)methyl)phenyl)-6-(hydroxymethyl)tetrahydro-2H-pyran-3,4,5-triol], the IC50 amounted to 13.3 nM.

For `Cc1cnc(Cc2cn([C@@H]3O[C@H](CO)[C@@H](O)[C@H](O)[C@H]3O)c3ccccc23)s1` [Example 132, (2R,3S,4S,5R,6R)-2-(Hydroxymethyl)-6-(3-((5-methylthiazol-2-yl)methyl)-1H-indol-1-yl)tetrahydro-2H-pyran-3,4,5-triol], the IC50 stood at 162 nM.

For the compound `OC[C@H]1O[C@@H](c2cc(Cc3ncc(-c4ccco4)s3)c(Cl)cc2Cl)[C@H](O)[C@@H](O)[C@@H]1O` [Example 59, (2S,3R,4R,5S,6R)-2-(2,4-Dichloro-5-((5-(furan-2-yl)thiazol-2-yl)methyl)phenyl)-6-(hydroxymethyl)tetrahydro-2H-pyran-3,4,5-triol], the IC50 is 5.43 nM.

With `OC[C@H]1O[C@@H](c2ccc(Cl)c(Cc3ncc(-c4ccc(F)cc4)s3)c2)[C@H](O)[C@@H](O)[C@@H]1O` [Example 11, (2S,3R,4R,5S,6R)-2-(4-Chloro-3-((5-(4-fluorophenyl)thiazol-2-yl)methyl)phenyl)-6-(hydroxymethyl)-tetrahydro-2H-pyran-3,4,5-triol], the IC50 is 21.2 nM.

Take `OC[C@H]1O[C@@H](c2ccc(C(F)(F)F)c(Cc3ncc(-c4ccccc4)s3)c2)[C@H](O)[C@@H](O)[C@@H]1O` [Example 51, (2R,3S,4R,5R,6S)-2-(Hydroxymethyl)-6-(3-((5-phenylthiazol-2-yl)methyl)-4-(trifluoromethyl)phenyl)tetrahydro-2H-pyran-3,4,5-triol]: the IC50 is 20.8 nM.

Turning to `OC[C@H]1O[C@@H](c2ccc(C(F)(F)F)c(Cc3ncc(-c4cccs4)s3)c2)[C@H](O)[C@@H](O)[C@@H]1O` [Example 49, (2R,3S,4R,5R,6S)-2-(Hydroxymethyl)-6-(3-((5-(thiophen-2-yl)thiazol-2-yl)methyl)-4-(trifluoromethyl)phenyl)tetrahydro-2H-pyran-3,4,5-triol], the IC50 stood at 16.9 nM.

Regarding `OC[C@H]1O[C@@H](c2ccc(C(F)(F)F)c(Cc3ncc(-c4ccco4)s3)c2)[C@H](O)[C@@H](O)[C@@H]1O` [Example 4, (2S,3R,4R,5S,6R)-2-(3-((5-(Furan-2-yl)thiazol-2-yl)methyl)-4-(trifluoromethyl)phenyl)-6-(hydroxymethyl)-tetrahydro-2H-pyran-3,4,5-triol], the IC50 was 9.73 nM.

With `COc1cc(Cl)c(Cc2ncc(C3CCCC3)s2)cc1[C@@H]1O[C@H](CO)[C@@H](O)[C@H](O)[C@H]1O` [Example 76, (2S,3R,4R,5S,6R)-2-(4-Chloro-5-((5-cyclopentylthiazol-2-yl)methyl)-2-methoxyphenyl)-6-(hydroxymethyl)tetrahydro-2H-pyran-3,4,5-triol], the half-maximal inhibitory concentration (IC50) stood at 9.35 nM.

On to `COc1c(Cc2ncc(-c3ccc(F)cc3)s2)cc([C@@H]2O[C@H](CO)[C@@H](O)[C@H](O)[C@H]2O)c2ccccc12` [Example 2, (2S,3R,4R,5S,6R)-2-(3-((5-(4-Fluorophenyl)thiazol-2-yl)methyl)-4-methoxynaphthalen-1-yl)-6-(hydroxymethyl)-tetrahydro-2H-pyran-3,4,5-triol], for which the IC50 stood at 12 nM.

As for `OC[C@H]1O[C@@H](c2cc(Cc3ncc(C4CCCC4)s3)c(Cl)cc2Cl)[C@H](O)[C@@H](O)[C@@H]1O` [Example 68, (2S,3R,4R,5S,6R)-2-(2,4-Dichloro-5-((5-cyclopentylthiazol-2-yl)methyl)phenyl)-6-(hydroxymethyl)tetrahydro-2H-pyran-3,4,5-triol], the IC50 was 33 nM.

`CCCCCOc1cnc(Cc2cc([C@@H]3O[C@H](CO)[C@@H](O)[C@H](O)[C@H]3O)ccc2Cl)s1` [Example 23, (2S,3R,4R,5S,6R)-2-(4-Chloro-3-((5-(pentyloxy)thiazol-2-yl)methyl)phenyl)-6-(hydroxymethyl)-tetrahydro-2H-pyran-3,4,5-triol]: the concentration for half-maximal inhibition (IC50) is 8.21 nM.

On to “(2S,3R,4R,5S,6R)-2-(4-Fluoro-3-((5-(thiazol-3-yl)thiazol-2-yl)methyl)phenyl)-6-(hydroxymethyl)tetrahydro-2H-pyran-3,4,5-triol [Example 43]”, for which the IC50 amounted to 7.36 nM.

Consider `CCCCCSc1cnc(Cc2cc([C@@H]3O[C@H](CO)[C@@H](O)[C@H](O)[C@H]3O)ccc2Cl)s1` [Example 27, (2S,3R,4R,5S,6R)-2-(4-Chloro-3-((5-(pentylthio)thiazol-2-yl)methyl)phenyl)-6-(hydroxymethyl)-tetrahydro-2H-pyran-3,4,5-triol], for which the half-inhibitory concentration (IC50) worked out at 18.9 nM.

Turning to `C=CCOc1cc(Cl)c(Cc2ncc(-c3cccs3)s2)cc1[C@@H]1O[C@H](CO)[C@@H](O)[C@H](O)[C@H]1O` [Example 85, (2S,3R,4R,5S,6R)-2-(2-(Allyloxy)-4-chloro-5-((5-(thiophen-2-yl)thiazol-2-yl)methyl)phenyl)-6-(hydroxymethyl)tetrahydro-2H-pyran-3,4,5-triol], the IC50 was 1.69 nM.

For `OC[C@H]1O[C@@H](c2ccc(Cl)c(Cc3ncc(C4CCCC4)s3)c2)[C@H](O)[C@@H](O)[C@@H]1O` [Example 19, (2S,3R,4R,5S,6R)-2-(4-Chloro-3-((5-cyclopentylthiazol-2-yl)methyl)phenyl)-6-(hydroxymethyl)-tetrahydro-2H-pyran-3,4,5-triol], the IC50 was determined as 9.71 nM.

In the case of `Cc1ccc(S(=O)(=O)OC[C@H]2O[C@@H](c3ccc(Cl)c(Cc4ncc(-c5ccco5)s4)c3)[C@H](O)[C@@H](O)[C@@H]2O)cc1` [Example 138, ((2R,3S,4R,5R,6S)-6-(4-Chloro-3-((5-(furan-2-yl)thiazol-2-yl)methyl)phenyl)-3,4,5-trihydroxy-tetrahydro-2H-pyran-2-yl)methyl 4-methylbenzenesulfonate], the half-inhibitory concentration (IC50) turned out to be 156 nM.

For `OC[C@H]1O[C@@H](c2ccc(C(F)(F)F)c(Cc3ncc(-c4ccsc4)s3)c2)[C@H](O)[C@@H](O)[C@@H]1O` [Example 50, (2R,3S,4R,5R,6S)-2-(Hydroxymethyl)-6-(3-((5-(thiophen-3-yl)thiazol-2-yl)methyl)-4-(trifluoromethyl)phenyl)tetrahydro-2H-pyran-3,4,5-triol], the IC50 was found to be 14.6 nM.
